Data from patent publication US20200270309A1, “MALEIMIDE GROUP-MODIFIED ANGIOGENESIS INHIBITOR HM-1 AND USE THEREOF” (NANJING ANJI BIOLOGICAL TECHNOLOGY CO., LTD, priority 2017, published 2020).
Where two headings read alike, the source gives them in different places. Peptide text beside a SMILES is read from it. * marks the point of attachment. X22 = O=C1C=CC(=O)N1CCOCCOCCOCCOCCOCCOCCCCCC(=O)*; Propanoyl(3-maleimido) = O=C1C=CC(=O)N1CCC(=O)*; X20 = O=C1C=CC(=O)N1CCOCCOCCOCCOCCOCCCC(=O)*; X4 = O=C1C=CC(=O)N1CCOCCOCCOCCOCCCCCCCC(=O)*; X62 = O=C1C=CC(=O)N1CCCCCCCCCCCCC(=O)*; X15 = O=C1C=CC(=O)N1CCOCCOCCOCCC(=O)*; X21 = O=C1C=CC(=O)N1CCOCCCCCCC(=O)*; X13 = O=C1C=CC(=O)N1CCOCCCCCC(=O)*; X32 = O=C1C=CC(=O)N1CCOCCOCCC(=O)*

Experiment: Half-lives and pharmacokinetic parameters of polypeptides vs HM-1
Details: in vivo
[1] = read-out: T1/2β (half-life) (converted)

AUC(0-inf) [ng·h/mL]	MRT inf [h]	clearance [mL/min/kg]	half-life (T1/2β (half-life)) [h]	AUC(0-inf) (read-out: AUC0-∞) [ng·h/mL]	clearance (read-out: CL (converted)) [mL/min/kg]	MRT inf (read-out: MRT0-∞) [h]	half-life [1] [h]	Structure (SMILES)
33900 ± 7640	60.6 ± 10.5	0.492	42.01 ± 0.33					C[C@H](NC(=O)CNC(=O)[C@H](CCCNC(=N)N)NC(=O)CCCCCCCOCCOCCOCCOCCN1C(=O)C=CC1=O)C(=O)N[C@@H](CC(=O)O)C(=O)N[C@@H](CCCNC(=N)N)C(=O)N[C@@H](C)C(=O)NCC(=O)NCC(=O)NCC(=O)NCC(=O)N[C@@H](CCCNC(=N)N)C(=O)NCC(=O)N[C@@H](CC(=O)O)C(=O)O [X76] (X4-RGADRAGGGGRGD-OH)
30500 ± 8350	54.6 ± 10.2	0.547	37.87 ± 0.32					C[C@H](NC(=O)CNC(=O)[C@H](CCCNC(=N)N)NC(=O)CCCOCCOCCOCCOCCOCCN1C(=O)C=CC1=O)C(=O)N[C@@H](CC(=O)O)C(=O)N[C@@H](CCCNC(=N)N)C(=O)N[C@@H](C)C(=O)NCC(=O)NCC(=O)NCC(=O)NCC(=O)N[C@@H](CCCNC(=N)N)C(=O)NCC(=O)N[C@@H](CC(=O)O)C(=O)O [X79] (X20-RGADRAGGGGRGD-OH)
32300 ± 7250	57.7 ± 13	0.517	39.97 ± 0.28					C[C@H](NC(=O)CNC(=O)[C@H](CCCNC(=N)N)NC(=O)CCOCCOCCOCCN1C(=O)C=CC1=O)C(=O)N[C@@H](CC(=O)O)C(=O)N[C@@H](CCCNC(=N)N)C(=O)N[C@@H](C)C(=O)NCC(=O)NCC(=O)NCC(=O)NCC(=O)N[C@@H](CCCNC(=N)N)C(=O)NCC(=O)N[C@@H](CC(=O)O)C(=O)O [X64] (X15-RGADRAGGGGRGD-OH)
31100 ± 7940	55.5 ± 12.4	0.537	38.47 ± 0.24					C[C@H](NC(=O)CNC(=O)[C@H](CCCNC(=N)N)NC(=O)CCCCCOCCN1C(=O)C=CC1=O)C(=O)N[C@@H](CC(=O)O)C(=O)N[C@@H](CCCNC(=N)N)C(=O)N[C@@H](C)C(=O)NCC(=O)NCC(=O)NCC(=O)NCC(=O)N[C@@H](CCCNC(=N)N)C(=O)NCC(=O)N[C@@H](CC(=O)O)C(=O)O [X53] (X13-RGADRAGGGGRGD-OH)
31800 ± 7130	56.9 ± 10.1	0.523	39.45 ± 0.33					C[C@H](NC(=O)CNC(=O)[C@H](CCCNC(=N)N)NC(=O)CCCCCOCCOCCOCCOCCOCCOCCN1C(=O)C=CC1=O)C(=O)N[C@@H](CC(=O)O)C(=O)N[C@@H](CCCNC(=N)N)C(=O)N[C@@H](C)C(=O)NCC(=O)NCC(=O)NCC(=O)NCC(=O)N[C@@H](CCCNC(=N)N)C(=O)NCC(=O)N[C@@H](CC(=O)O)C(=O)O [X88] (X22-RGADRAGGGGRGD-OH)
29200 ± 8180	52.2 ± 9.78	0.572	36.2 ± 0.25					C[C@H](NC(=O)CNC(=O)[C@H](CCCNC(=N)N)NC(=O)CCCCCCCCCCCCN1C(=O)C=CC1=O)C(=O)N[C@@H](CC(=O)O)C(=O)N[C@@H](CCCNC(=N)N)C(=O)N[C@@H](C)C(=O)NCC(=O)NCC(=O)NCC(=O)NCC(=O)N[C@@H](CCCNC(=N)N)C(=O)NCC(=O)N[C@@H](CC(=O)O)C(=O)O [X12] (X62-RGADRAGGGGRGD-OH)
27200 ± 7640	48.8 ± 11.2	0.612	33.83 ± 0.25					C[C@H](NC(=O)CNC(=O)[C@H](CCCNC(=N)N)NC(=O)CCCCCCOCCN1C(=O)C=CC1=O)C(=O)N[C@@H](CC(=O)O)C(=O)N[C@@H](CCCNC(=N)N)C(=O)N[C@@H](C)C(=O)NCC(=O)NCC(=O)NCC(=O)NCC(=O)N[C@@H](CCCNC(=N)N)C(=O)NCC(=O)N[C@@H](CC(=O)O)C(=O)O [X54] (X21-RGADRAGGGGRGD-OH)
33800 ± 8180	60.5 ± 10.5	0.493	41.93 ± 0.24					C[C@H](NC(=O)CNC(=O)[C@H](CCCNC(=N)N)NC(=O)CCOCCOCCN1C(=O)C=CC1=O)C(=O)N[C@@H](CC(=O)O)C(=O)N[C@@H](CCCNC(=N)N)C(=O)N[C@@H](C)C(=O)NCC(=O)NCC(=O)NCC(=O)NCC(=O)N[C@@H](CCCNC(=N)N)C(=O)NCC(=O)N[C@@H](CC(=O)O)C(=O)O [X57] (X32-RGADRAGGGGRGD-OH)
				31800 ± 8090	0.525	56.9 ± 14.2	3944 ± 0.27	C[C@H](NC(=O)CNC(=O)[C@H](CCCNC(=N)N)NC(=O)CCN1C(=O)C=CC1=O)C(=O)N[C@@H](CC(=O)O)C(=O)N[C@@H](CCCNC(=N)N)C(=O)N[C@@H](C)C(=O)NCC(=O)N[C@@H](CO)C(=O)N[C@@H](CO)C(=O)N[C@@H](CO)C(=O)N[C@@H](CO)C(=O)N[C@@H](CCCNC(=N)N)C(=O)NCC(=O)N[C@@H](CC(=O)O)C(=O)O [P13] ({Propanoyl(3-maleimido)}-RGADRAGSSSSRGD-OH; C-terminus assumed)
				27800 ± 7510	0.6	49.8 ± 9.73	34.51 ± 0.28	C[C@H](NC(=O)CNC(=O)[C@H](CCCNC(=N)N)NC(=O)CCN1C(=O)C=CC1=O)C(=O)N[C@@H](CC(=O)O)C(=O)N[C@@H](CCCNC(=N)N)C(=O)N[C@@H](C)C(=O)NCC(=O)NCC(=O)NCC(=O)NCC(=O)N[C@@H](CCCNC(=N)N)C(=O)NCC(=O)N[C@@H](CC(=O)O)C(=O)O [X2] ({Propanoyl(3-maleimido)}-RGADRAGGGGRGD-OH)
